From patent US8450527B2, “Amine derivative compounds for treating ophthalmic diseases and disorders” (Acucela Inc., priority 2007, dated 2013)

Target: T1, visual cycle isomerase (Mus musculus, UniProt Q91ZQ5)
T1 construct: The recovery of 11-cis-retinal after bleaching can be used to estimate the activity of isomerase in vivo; from tissue; host or cells: eye (RPE) of living CD-1 albino male mice
T1 sequence (Q91ZQ5 1-533): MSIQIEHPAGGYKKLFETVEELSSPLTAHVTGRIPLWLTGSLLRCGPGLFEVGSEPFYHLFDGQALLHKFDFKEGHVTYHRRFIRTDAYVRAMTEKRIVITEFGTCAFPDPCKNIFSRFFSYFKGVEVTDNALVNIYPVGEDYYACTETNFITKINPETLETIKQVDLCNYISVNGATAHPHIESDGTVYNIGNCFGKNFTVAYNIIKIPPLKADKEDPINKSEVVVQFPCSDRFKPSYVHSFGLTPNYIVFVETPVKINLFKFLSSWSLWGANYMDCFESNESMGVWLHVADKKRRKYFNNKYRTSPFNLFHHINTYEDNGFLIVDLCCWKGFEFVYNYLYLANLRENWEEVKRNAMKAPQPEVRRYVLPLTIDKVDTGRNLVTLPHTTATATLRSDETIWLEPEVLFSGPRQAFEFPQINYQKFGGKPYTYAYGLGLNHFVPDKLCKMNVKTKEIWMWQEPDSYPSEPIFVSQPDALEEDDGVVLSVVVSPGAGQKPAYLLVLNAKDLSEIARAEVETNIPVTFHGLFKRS
Experiment: in vivo murine isomerase assay: recovery of 11-cis-retinal (oxime) after photobleaching
Procedure: FIG. 1 illustrates isomerase inhibitory activity of the compound of Example 3 (Compound 3). The animals were orally gavaged with 1 mg/kg compound, then “photo-bleached” (5000 Lux white light for 10 minutes) at 4, 24 and 48 hours after dosing, and returned to darkness to allow recovery of the 11-cis-retinal content of the eyes. Mice were sacrificed 2 hours after bleaching, eyes were enucleated, and retinoid content was analyzed by HPLC.
FIG. 2 illustrates concentration-dependent inhibition of isomerase activity by the compound of Example 19 (Compound 19). […] Five animals were included in each treatment group. The error bars correspond to standard error.
A method for determining the effect of a compound on isomerase activity may be performed in vitro as described herein and in the art (Stecher et al., J Biol Chem 274:8577-85 (1999); see also Golczak et al., Proc. Natl. Acad. Sci. USA 102:8162-67 (2005)). Retinal pigment epithelium (RPE) microsome membranes isolated from an animal (such as bovine, porcine, human, for example) may serve as the source of the isomerase. The capability of the amine derivative compounds to inhibit isomerase may also be determined by an in vivo murine isomerase assay. Brief exposure of the eye to intense light (“photobleaching” of the visual pigment or simply “bleaching”) is known to photo-isomerize almost all 11-cis-retinal in the retina. […]

inhibition of 11-cis retinal (oxime) recovery (FIG. 2A/2B, dose response): dose related
ED50 (mouse, read-out: ED50 (dose of compound that gives 50% inhibition of 11-cis retinal (oxime) recovery), FIG. 2, five animals per treatment group, estimated from dose response): ~0.651 mg/kg
SMILES: CCCC(O)(CCC)CCc1cccc(C(O)CCN)c1 (centres unmarked) [Example 19, 4-(3-(3-amino-1-hydroxypropyl)phenethyl)heptan-4-ol]
